Results published in patent US10633350B2, “Diphenyl derivatives and uses thereof” (NOVARTIS AG, priority 2017, dated 2020).

system: FoxO3a; assay: FoxO3a inhibition assay (GFP-FoxO3a nuclear to cytoplasmic translocation) in U2OS GFP-FoxO3a H212R reporter cells; assay type: cell-based; conditions: Homo sapiens, 0.5 h, serum starved overnight, 30 minutes compound treatment, ratio of nuclear to cytosolic GFP intensity, AC50 = concentration that results in 50% activation or inhibition, read-out: FoxO AC50
Experimental: Phosphorylation of Akt on S473 and FoxO3a nuclear to cytoplasmic translocation were used as readouts of PI3K/Akt/mTOR pathway activation downstream of growth factor signaling.
Reporter cell line. U2OS GFP-FoxO3a H212R reporter cell line was established by transducing U2OS cells with the retroviral plasmid pLEGFP-C1 containing FoxO3a H212R transgene and selecting for G418 resistant clones.
Reporter assay. U2OS GFP-FoxO3a H212R cells were plated in 384-well plates at 4000 cells per well in 30 microliters of McCoy's 5A medium containing 10% FBS. On day 1 the cells were washed with serum free medium and serum starved overnight. On day 2 the cells were treated with different doses of the compounds for 30 minutes, fixed with 4% Paraformaldehyde for 1 hour and stained with Phospho-AKT (Ser473) antibody (Cell Signaling Technology, catalog #4060) overnight at 4° C. After nuclei staining with Hoechst 33342 (Life Technologies, catalog # H3570) the plates were imaged with InCell 2000 (GE Healthcare Bio-Sciences). FoxO3a inhibition activity is calculated as the ratio of nuclear to cytosolic GFP intensity in percent. Akt activation is measured as the total cellular intensity of Phospho-Akt antibody staining in percent. DMSO control is set as 0% activity.

| SMILES | AC50 |
| --- | --- |
| Cc1nc(C(N)=O)nn1-c1ccc(Cc2ccc(-c3ccc(CN4C[C@@H](C)N[C@H](C)C4)cc3)cc2)cc1 [Example 39-9] | 123 nM |
| Cc1nc(C(N)=O)nn1-c1ccc(Cc2ccc(-c3ccc(CN4CCC(C(F)(F)F)CC4)cc3)cc2)cc1 [Example 39-35] | 145 nM |
| Cc1nc(C(N)=O)nn1-c1ccc(Cc2ccc(-c3ccc(O[C@@H]4CCN(C)C4)cc3)cc2)cc1 [Example 63, (R)-5-methyl-1-(4-((4′-((1-methylpyrrolidin-3-yl)oxy)-[1,1′-biphenyl]-4-yl)methyl)phenyl)-1H-1,2,4-triazole-3-carboxamide] | 11 nM |
| Cc1nc(C(N)=O)nn1-c1ccc(Cc2ccc(-c3ccc(CN4CCCN(C)CC4)cc3)cc2)cc1 [Example 39-28] | 39 nM |
| Cc1nc(C(N)=O)nn1-c1ccc(Cc2ccc(C3CC4(CC(C(=O)N5CCNCC5)C4)C3)cc2)cc1 (stereo not shown) [Example 44, 5-methyl-1-(4-(4-(6-(piperazine-1-carbonyl)spiro[3.3]heptan-2-yl)benzyl)phenyl)-1H-1,2,4-triazole-3-carboxamide] | 134 nM |
| Cc1nc(C(N)=O)nn1-c1ccc(Cc2ccc(-c3ccc(CN4CCC(S(C)(=O)=O)CC4)cc3)cc2)cc1 [Example 39-31] | 49 nM |
| Cc1cc(C(N)=O)nn1-c1ccc(Cc2ccc(-c3cnc(C(C)(C)O)nc3)cc2)cc1 [Example 60, 1-(4-(4-(2-(2-hydroxypropan-2-yl)pyrimidin-5-yl)benzyl)phenyl)-5-methyl-1H-pyrazole-3-carboxamide] | 83 nM |
| Cc1nc(C(N)=O)nn1-c1ccc(Cc2ccc(-c3ccc(CN4CCC(CO)CC4)cc3)cc2)cc1 [Example 39-23] | 18 nM |
| Cc1nc(C(N)=O)nn1-c1ccc(Cc2ccc(-c3ccc(CN4C[C@H](O)[C@@H](O)C4)cc3)cc2)cc1 [Example 39-29] | 180 nM |
| Cc1nc(C(N)=O)nn1-c1ccc(Cc2ccc(-c3ccc(CN4CC5(CCCO5)C4)cc3)cc2)cc1 [Example 39-11] | 241 nM |
| Cc1nc(C(N)=O)nn1-c1ccc(Cc2ccc(-c3ccc(CN4CCN5CCCCC5C4)cc3)cc2)cc1 (stereo not shown) [Example 39-21] | 60 nM |
| Cc1nc(C(N)=O)nn1-c1ccc(Cc2ccc(-c3ccc(CN4CCC(N(C)C)CC4)cc3)cc2)cc1 [Example 39-2] | 5 nM |
| Cc1nc(C(N)=O)nn1-c1ccc(Cc2ccc(-c3ccc(CN4CCC(C)(O)C4)cc3)cc2)cc1 (stereo not shown) [Example 39-10] | 13 nM |
| Cc1nc(C(N)=O)nn1-c1ccc(Cc2ccc(-c3ccc(CN4C[C@H]5CCN(C)[C@H]5C4)cc3)cc2)cc1 [Example 39-30] | 32 nM |
| Cc1nnc(-c2cccc(-c3ccc(Cc4ccc(-n5nc(C(N)=O)cc5C)cc4)cc3)c2)o1 [Example 3-7, 5-methyl-1-(4-((3′-(5-methyl-1,3,4-oxadiazol-2-yl)-[1,1′-biphenyl]-4-yl)methyl)phenyl)-1H-pyrazole-3-carboxamide] | 499 nM |
| Cc1nc(C(N)=O)nn1-c1ccc(Cc2ccc(-c3ccc(CN4CCC(O)CC4)cc3)cc2)cc1 [Example 39-25] | 105 nM |
| Cc1nc(C(N)=O)nn1-c1ccc(Cc2ccc(-c3ccc(CN4CC(C)(O)C4)cc3)cc2)cc1 [Example 39-24] | 406 nM |
| Cc1cc(C(N)=O)nn1-c1ccc(Cc2ccc(-c3ccc(C(=O)NCC(C)(C)O)cn3)cc2)cc1 [Example 59, 6-(4-(4-(3-carbamoyl-5-methyl-1H-pyrazol-1-yl)benzyl)phenyl)-N-(2-hydroxy-2-methylpropyl)nicotinamide] | 58 nM |
| Cc1nc(C(N)=O)nn1-c1ccc(Cc2ccc(-c3ccc(CN4CC(CO)C4)cc3)cc2)cc1 [Example 39-36] | 164 nM |
| Cc1nc(C(N)=O)nn1-c1ccc(Cc2ccc(-c3ccc(CN4CCNC(C)(C)C4)cc3)cc2)cc1 [Example 39-18] | 81 nM |
| Cc1nc(C(N)=O)nn1-c1ccc(Cc2ccc(-c3ccc(CN4C[C@H]5COC[C@H]5C4)cc3)cc2)cc1 [Example 39-26] | 31 nM |
| Cc1nc(C(N)=O)nn1-c1ccc(Cc2ccc(-c3ccc(CN4CCC(S(C)(=O)=O)C4)cc3)cc2)cc1 (stereo not shown) [Example 39-14] | 54 nM |
| Cc1nc(C(N)=O)nn1-c1ccc(Cc2ccc(-c3ccc(CN4CCC5CN(C)CC54)cc3)cc2)cc1 (stereo not shown) [Example 39-15] | 5 nM |

| SMILES | AC50 |
| --- | --- |
| Cc1cc(C(N)=O)nn1-c1ccc(Cc2ccc(C34CCC(C(=O)N5CCNCC5)(CC3)CC4)cc2)cc1 [Example 42, 5-methyl-1-(4-(4-(4-(piperazine-1-carbonyl)bicyclo[2.2.2]octan-1-yl)benzyl)phenyl)-1H-pyrazole-3-carboxamide] | 55 nM |
| Cc1cc(C(N)=O)nn1-c1ccc(Cc2ccc(-c3ccc(C(=O)N4CCNCC4)cn3)cc2)cc1 [Example 27, 5-methyl-1-(4-(4-(5-(piperazine-1-carbonyl)pyridin-2-yl)benzyl)phenyl)-1H-pyrazole-3-carboxamide] | 213 nM |
| Cc1nc(C(N)=O)nn1-c1ccc(Cc2ccc(-c3ccc(CN4CC(O)C4)cc3)cc2)cc1 [Example 39-8] | 864 nM |
| Cc1nc(C(N)=O)nn1-c1ccc(Cc2ccc(-c3ccc(O[C@H]4CCN(C)C4)cc3)cc2)cc1 [Example 62, (S)-5-methyl-1-(4-((4′-((1-methylpyrrolidin-3-yl)oxy)-[1,1′-biphenyl]-4-yl)methyl)phenyl)-1H-1,2,4-triazole-3-carboxamide] | 20 nM |
| Cc1cc(C(N)=O)nn1-c1ccc(Cc2ccc(C34CCC(C(=O)N5CCN(C)CC5)(CC3)CC4)cc2)cc1 [Example 43, 5-methyl-1-(4-(4-(4-(4-methylpiperazine-1-carbonyl)bicyclo[2.2.2]octan-1-yl)benzyl)phenyl)-1H-pyrazole-3-carboxamide] | 17 nM |
| Cc1nc(C(N)=O)nn1-c1ccc(Cc2ccc(-c3ccc(CN4C[C@@H](C)N[C@@H](C)C4)cc3)cc2)cc1 [Example 39-19] | 65 nM |
| Cc1cc(C(N)=O)nn1-c1ccc(Cc2ccc(-c3ccc(C(C)(C)CO)cn3)cc2)cc1 [Example 57, 1-(4-(4-(5-(1-hydroxy-2-methylpropan-2-yl)pyridin-2-yl)benzyl)phenyl)-5-methyl-1H-pyrazole-3-carboxamide] | 49 nM |
| Cc1nc(C(N)=O)nn1-c1ccc(Cc2ccc(-c3ccc(CN4CCN[C@@H](C)C4)nc3)cc2)cc1 [Example 36, (S)-5-methyl-1-(4-(4-(6-((3-methylpiperazin-1-yl)methyl)pyridin-3-yl)benzyl)phenyl)-1H-1,2,4-triazole-3-carboxamide] | 183 nM |
| Cc1nc(C(N)=O)nn1-c1ccc(Cc2ccc(-c3ccc(CN4CCC(F)(F)CC4)cc3)cc2)cc1 [Example 39-20] | 140 nM |
| Cc1nc(C(N)=O)nn1-c1ccc(Cc2ccc(-c3ccc(CN4CCCC(C)(O)C4)cc3)cc2)cc1 (stereo not shown) [Example 39-16] | 56 nM |
| Cc1cc(C(N)=O)nn1-c1ccc(Cc2ccc(-c3ccc(CN4CCN(C5COC5)CC4)cn3)cc2)cc1 [Example 33, 5-methyl-1-(4-(4-(5-((4-(oxetan-3-yl)piperazin-1-yl)methyl)pyridin-2-yl)benzyl)phenyl)-1H-pyrazole-3-carboxamide] | 138 nM |
| Cc1nc(C(N)=O)nn1-c1ccc(Cc2ccc(-c3ccc(CN4CC(F)(F)C4)cc3)cc2)cc1 [Example 39-33] | 42 nM |
| Cc1nc(C(N)=O)nn1-c1ccc(Cc2ccc(-c3ccc(CN4CCN[C@@H](CO)C4)cc3)cc2)cc1 [Example 39-12] | 181 nM |
| Cc1nc(C(N)=O)nn1-c1ccc(Cc2ccc(-c3ccc(CN4CCN(C(C)(C)C)CC4)cc3)cc2)cc1 [Example 39-17] | 85 nM |
| Cc1nc(C(N)=O)nn1-c1ccc(Cc2ccc(-c3ccc(CN4CCCC(F)C4)cc3)cc2)cc1 (stereo not shown) [Example 39-27] | 46 nM |
| Cc1nc(C(N)=O)nn1-c1ccc(Cc2ccc(-c3ccc(C(C)(C)NCC(C)(C)O)cc3)cc2)cc1 [Example 64, 1-(4-((4′-(2-((2-hydroxy-2-methylpropyl)amino)propan-2-yl)-[1,1′-biphenyl]-4-yl)methyl)phenyl)-5-methyl-1H-1,2,4-triazole-3-carboxamide] | 62 nM |
| Cc1nc(C(N)=O)nn1-c1ccc(Cc2ccc(-c3ccc(CN4CCCC[C@H]4CO)cc3)cc2)cc1 [Example 39-22] | 98 nM |
| Cc1nc(C(N)=O)nn1-c1ccc(Cc2ccc(-c3ccc(CN4CC[C@@H](F)C4)cc3)cc2)cc1 [Example 39-13] | 79 nM |
| Cc1nc(C(N)=O)nn1-c1ccc(Cc2ccc(-c3ccc(CN4C[C@@H]5[C@@H](CO)[C@@H]5C4)cc3)cc2)cc1 [Example 39-34] | 10 nM |
| Cc1cc(C(N)=O)nn1-c1ccc(Cc2ccc(-c3ccc(C(C)(C)O)nn3)cc2)cc1 [Example 58, 1-(4-(4-(6-(2-hydroxypropan-2-yl)pyridazin-3-yl)benzyl)phenyl)-5-methyl-1H-pyrazole-3-carboxamide] | 225 nM |
| Cc1nc(C(N)=O)nn1-c1ccc(Cc2ccc(-c3ccc(CN4C[C@H]5CN(C)C[C@H]5C4)cc3)cc2)cc1 [Example 38-3] | 35 nM |
| Cc1cc(C(N)=O)nn1-c1ccc(Cc2ccc(-c3ccnc(CO)c3)cc2)cc1 [Example 61, 1-(4-(4-(2-(hydroxymethyl)pyridin-4-yl)benzyl)phenyl)-5-methyl-1H-pyrazole-3-carboxamide] | 187 nM |
| Cc1nc(C(N)=O)nn1-c1ccc(Cc2ccc(-c3ccc(CN4CCCC5(COC5)C4)cc3)cc2)cc1 [Example 38-6] | 74 nM |
